Reference: US20040224880A1, “Regulation of gastric acid secretion by inwardly rectifying k+ channels” (Beth Israel Deaconess Medical Center, Inc., priority 2001, published 2004)
Entries after “also recorded” stand apart in the source; their conditions may differ. Where two headings read alike, the source gives them in different places.

How the values were obtained:
bullfrog gastric mucosa [1] = assay: Acid secretion of frog (bullfrog) gastric mucosa stimulated with histamine/carbachol or forskolin; format: cell-based; conditions: for Rate of decline in acid secretion: from the linear portion of the inhibition curve, 1 mM cimetidine, 10 mM NH4Cl, 2 mM KCN; for effect of 0.5 and 1 mM barium on acid secretion (in words): up to 3 hr; for acid secretion with 10 mM imidazole, 3 hr: 10 mM nutrient imidazole (5 mM Iz), pH 7.1, 3 hr
bullfrog gastric mucosa [2] = format: cell-based
Description: FIG. 1B Electrophysiology in the bullfrog gastric mucosa. […] Removal of NH4Cl was followed by a complete recovery of R within 30 min. Data were obtained from 21 experiments and are expressed as the mean±SEM.
FIG. 1C Electrophysiology in the bullfrog gastric mucosa. […] Removal of NH4Cl was followed by a complete recovery of PD within 30 min. Data were obtained from 21 experiments and are expressed as the mean±SEM.

bullfrog gastric mucosa [3] = system: bullfrog gastric mucosa
[4] = blocker first (0.5-5 mM barium, 1-10 mM TEA, 10-100 μM tolbutamide, 10 μM clotrimazole, imidazole, 100 μM bumetamide, amiloride, 1 mM oubain, 0.3 mM DIDS), then 10 mM NH4Cl, within 30 min
[5] = blocker first, then 10 mM NH4Cl, within 30 min
[6] = nutrient solution, vs control tissues, imidazole 100 μM Iz (200 μM nutrient), TEA 1-10 mM, tolbutamide 10-100 μM, clotrimazole 10 μM, bumetamide 100 μM, amiloride, oubain 1 mM, DIDS 0.3 mM, KCN, KCl 2 mM, methylamine
[7] = 10 mM NH4Cl within 30 min, 0.5, 1, 5 mM barium, TEA, tolbutamide, clotrimazole, vs control tissues
[8] = 10 mM NH4Cl within 30 min, barium, TEA, tolbutamide, clotrimazole, vs control tissues
[9] = blocker first (0.5 and 1 mM barium, TEA, tolbutamide, clotrimazole), then 10 mM NH4Cl, within 30 min
[10] = Time 90″: after 90 min stimulation with histamine/carbachol, start of incubation with 1 mM cimetidine, 0.3 mM omeprazole, 10 mM NH4Cl or 2 mM KCN
[11] = Time 120″, 1 mM cimetidine or 0.3 mM omeprazole added at 90 min
[12] = Time 150″, 1 mM cimetidine or 0.3 mM omeprazole added at 90 min

With N=C(N)NC(=O)c1nc(Cl)c(N)nc1N [amiloride] the “acid secretion after 10 mM NH4Cl added to tissues treated with the blocker” value (from here on “acid secretion after 10 mM NH4Cl added”) (bullfrog gastric mucosa [1]; [4]) was 0.188±0.140 μEq/hr cm^2, the “effect of 10 mM NH4Cl on acid secretion of tissues treated with the blocker (in words)” value (“effect of 10 mM NH4Cl” for short) (bullfrog gastric mucosa [1]; [5]) was “declined” and the “effect on stimulated acid secretion (in words)” value (bullfrog gastric mucosa [1]; [6]) was “unchanged; also recorded: little effect on stimulated acid secretion; also recorded: no significant reduction in acid secretion”.
For Clc1ccccc1C(c1ccccc1)(c1ccccc1)n1ccnc1 [clotrimazole], the “acid secretion after 10 mM NH4Cl added” value (bullfrog gastric mucosa [1]; [4]) was 0 μEq/hr cm^2, the “effect of 10 mM NH4Cl” value (bullfrog gastric mucosa [1]; [5]) was “abolished” and the “effect on stimulated acid secretion (in words)” value (bullfrog gastric mucosa [1]; [6]) was “no effect on stimulated acid secretion; also recorded: no significant decline”. For the same compound, the “effect on resistance (R) of stimulated tissues (in words)” value (“effect on resistance (R)” below) (bullfrog gastric mucosa [2]; [7]) was “no effect; also recorded: not significantly different from that of control tissues”, the “effect on potential difference (PD) of stimulated tissues (in words)” value (“effect on potential difference (PD)” below) (bullfrog gastric mucosa [2]; [8]) was “no effect” and the “R after 10 mM NH4Cl added to tissues treated with the blocker (in words)” value (shortened to “R after 10 mM NH4Cl added”) (bullfrog gastric mucosa [2]; [9]) was “increase in R”. The “PD after 10 mM NH4Cl added to tissues treated with the blocker (in words)” value (“PD after 10 mM NH4Cl added” for short) (bullfrog gastric mucosa [2]; [5]) was “increase in PD”.
CN/C(=N/CCSCc1nc[nH]c1C)NC#N [Cimetidine, cimetidine] was tested, and the Acid secretion (bullfrog gastric mucosa [1]; [10]) was 5.59 ± 0.13 μEq/h · cm^2, the Acid secretion (bullfrog gastric mucosa [1]; [11]) was 3.51 ± 0.21 μEq/h · cm^2 and the Acid secretion (bullfrog gastric mucosa [1]; [12]) was 0.83 ± 0.22 μEq/h · cm^2. For the same compound, the “Rate of decline in acid secretion” value (bullfrog gastric mucosa [1]; 0.3 mM omeprazole) was −0.07935 (μEq/h · cm^2)/min.
With CCCCNc1cc(C(=O)O)cc(S(N)(=O)=O)c1Oc1ccccc1 [bumetamide] the “acid secretion after 10 mM NH4Cl added” value (bullfrog gastric mucosa [1]; [4]) was 0.645±0.278 μEq/hr cm^2, the “effect of 10 mM NH4Cl” value (bullfrog gastric mucosa [1]; [5]) was “declined” and the “effect on stimulated acid secretion (in words)” value (bullfrog gastric mucosa [1]; [6]) was “unchanged; also recorded: little effect on stimulated acid secretion; also recorded: no significant reduction in acid secretion”.
For [Ba] [barium], the “acid secretion with 0.5 mM barium” value (bullfrog gastric mucosa [1]; 0.5 mM barium, 3 hr (180 min), from 5.23±0.29) was 4.12±0.38 μEq/hr cm^2, the “acid secretion with 1 mM barium” value (bullfrog gastric mucosa [1]; 1 mM barium, 3 hr (180 min), from 5.35±0.22) was 4.20±0.21 μEq/hr cm^2 and the “acid secretion with 5 mM barium” value (bullfrog gastric mucosa [1]; 5 mM barium, 3 hr (180 min), from 5.19±0.22) was 2.89±0.33 μEq/hr cm^2. The “reduction of acid secretion compared to control tissues” value (bullfrog gastric mucosa [1]; 5 mM barium, by 3 hr) was 44%, the “effect of 5 mM barium on acid secretion (in words)” value (bullfrog gastric mucosa [1]; 5 mM barium, vs control tissues) was “significantly (P=0.0085) different from control tissues; also recorded: significantly different from that of control tissues” and the “effect of 0.5 and 1 mM barium on acid secretion (in words)” value (bullfrog gastric mucosa [1]; vs control tissues) was “not different from that of control tissues; also recorded: inhibition of acid secretion does not occur”. For the same compound, the “effect of 0.5 and 1 mM barium on acid secretion (in words)” value (bullfrog gastric mucosa [1]; vs control tissues, listed as Barium) was “not significantly different from that of control tissues”, the “acid secretion after 10 mM NH4Cl added” value (bullfrog gastric mucosa [1]; [4]) was 0 μEq/hr cm^2 and the “effect of 10 mM NH4Cl” value (bullfrog gastric mucosa [1]; [5]) was “abolished”. For the same compound, the “effect on resistance (R)” value (bullfrog gastric mucosa [2]; [7]) was “increased significantly; also recorded: significant increase in R”, the “effect on potential difference (PD)” value (bullfrog gastric mucosa [2]; [8]) was “unaffected; also recorded: little to no influence on PD; also recorded: not significantly different from that of control tissues” and the “R after 10 mM NH4Cl added” value (bullfrog gastric mucosa [2]; [9]) was “R increased similar to that of control tissues; also recorded: increase in R”. For the same compound, the “PD after 10 mM NH4Cl added” value (bullfrog gastric mucosa [2]; [5]) was “PD increased in all groups; also recorded: increase in PD”.
With C[C@@H]1O[C@@H](O[C@H]2C[C@@H](O)[C@]3(CO)[C@H]4[C@H](O)C[C@]5(C)[C@@H](C6=CC(=O)OC6)CC[C@]5(O)[C@@H]4CC[C@]3(O)C2)[C@H](O)[C@H](O)[C@H]1O [oubain] the “effect on stimulated acid secretion (in words)” value (bullfrog gastric mucosa [1]) was “unchanged; also recorded: little effect on stimulated acid secretion; also recorded: no significant reduction in acid secretion”, the “acid secretion after 10 mM NH4Cl added” value (bullfrog gastric mucosa [1]; [4]) was 0 μEq/hr cm^2 and the “effect of 10 mM NH4Cl” value (bullfrog gastric mucosa [1]; [5]) was “declined”.
With c1c[nH]cn1 [imidazole] the “acid secretion with 100 μM imidazole” value (bullfrog gastric mucosa [1]; 100 μM Iz, 3 hr (180 min), from 5.47±0.26) was 4.86±0.29 μEq/hr cm^2, the “acid secretion with 10 mM imidazole, 30 min” value (bullfrog gastric mucosa [1]; 10 mM imidazole (5 mM Iz, 5 mM Iz+), 30 min, from 6.60±0.43) was 4.60±0.43 μEq/hr cm^2 and the “acid secretion with 10 mM imidazole, 3 hr” value (bullfrog gastric mucosa [1]; from 6.60±0.43) was 4.06±0.46 μEq/hr cm^2. For the same compound, the “acid secretion with 10 mM imidazole, 3 hr” value (bullfrog gastric mucosa [1]; from 6.60±0.43, listed as Iz) was 4.03 μEq/hr cm^2, the “acid secretion after 10 mM NH4Cl added” value (bullfrog gastric mucosa [1]; [4]) was 0±0 μEq/hr cm^2 and the “effect of 10 mM NH4Cl” value (bullfrog gastric mucosa [1]; [5]) was “inhibited completely; also recorded: inhibited acid secretion immediately”. For the same compound, the “effect on stimulated acid secretion (in words)” value (bullfrog gastric mucosa [1]; [6]) was “no effect on acid secretion; also recorded: not significantly different from that of control tissues” and the “effect on stimulated acid secretion (in words)” value (bullfrog gastric mucosa [1]; nutrient solution, vs control tissues, imidazole 100 μM Iz (200 μM nutrient), TEA 1-10 mM, tolbutamide 10-100 μM, clotrimazole 10 μM, bumetamide 100 μM, amiloride, oubain 1 mM, DIDS 0.3 mM, KCN, KCl 2 mM, methylamine, listed as Iz) was “not significantly different from that of control tissues”.
N [ammonia (NH3), ammonia] was tested, and the “concentration of ammonia (NH3) that completely inhibits acid secretion within 30 min” value (bullfrog gastric mucosa [1]; NH3 present in 10 mM NH4Cl at pH 7.2, basolateral exposure) was 92.5 µM, the “NH3 lost from the nutrient solution” value (bullfrog gastric mucosa [3]; 10 mM) was 61.46 µM and the “luminal NH3 concentration after 30 min” value (bullfrog gastric mucosa [3]; 30 min, 10 mM) was 0.00133 ± 0.00133 µM. For the same compound, the “nutrient NH3 concentration at 30 min” value (bullfrog gastric mucosa [3]; 30 min, 10 mM) was 538.3±6.7.
For CCCCNC(=O)NS(=O)(=O)c1ccc(C)cc1 [tolbutamide], the “acid secretion after 10 mM NH4Cl added” value (bullfrog gastric mucosa [1]; [4]) was 0 μEq/hr cm^2, the “effect of 10 mM NH4Cl” value (bullfrog gastric mucosa [1]; [5]) was “abolished” and the “effect on stimulated acid secretion (in words)” value (bullfrog gastric mucosa [1]; [6]) was “no effect on stimulated acid secretion; also recorded: no significant decline”. For the same compound, the “effect on resistance (R)” value (bullfrog gastric mucosa [2]; [7]) was “no effect; also recorded: not significantly different from that of control tissues”, the “effect on potential difference (PD)” value (bullfrog gastric mucosa [2]; [8]) was “no effect” and the “R after 10 mM NH4Cl added” value (bullfrog gastric mucosa [2]; [9]) was “increase in R”. For the same compound, the “PD after 10 mM NH4Cl added” value (bullfrog gastric mucosa [2]; [5]) was “increase in PD”.
In the case of CC[N+](CC)(CC)CC [TEA, tetraethylammonium], the “acid secretion after 10 mM NH4Cl added” value (bullfrog gastric mucosa [1]) is reported as 0 μEq/hr cm^2, the “effect of 10 mM NH4Cl” value (bullfrog gastric mucosa [1]) is reported as “abolished” and the “effect on stimulated acid secretion (in words)” value (bullfrog gastric mucosa [1]) is reported as “no effect on stimulated acid secretion; also recorded: no significant decline”. The “PD after 10 mM NH4Cl added” value (bullfrog gastric mucosa [2]) was “increase in PD”, the “R after 10 mM NH4Cl added” value (bullfrog gastric mucosa [2]) was “R increased in all tissues; also recorded: increase in R” and the “effect on potential difference (PD)” value (bullfrog gastric mucosa [2]) was “no effect”. The “effect on resistance (R)” value (bullfrog gastric mucosa [2]) was “no effect on R; also recorded: not significantly different from that of control tissues”.
In the case of O=S(=O)(O)c1cc(N=C=S)ccc1C=Cc1ccc(N=C=S)cc1S(=O)(=O)O [DIDS], the “acid secretion with DIDS” value (bullfrog gastric mucosa [1]; 0.3 mM DIDS, 60 min, from 5.25±0.12) is reported as 2.29±0.18 μEq/hr cm^2, the “acid secretion after 10 mM NH4Cl added” value (bullfrog gastric mucosa [1]; [4]) is reported as 0 μEq/hr cm^2 and the “effect of 10 mM NH4Cl” value (bullfrog gastric mucosa [1]; [5]) is reported as “declined; also recorded: immediately reduced acid secretion to zero”. For the same compound, the “effect on stimulated acid secretion (in words)” value (bullfrog gastric mucosa [1]; [6]) was “approximately one half of the initial rate; also recorded: partially, but not completely, inhibited”.
In the case of COc1ccc2[nH]c([S+]([O-])Cc3ncc(C)c(OC)c3C)nc2c1 (stereo not drawn) [Omeprazole, omeprazole], the Acid secretion (bullfrog gastric mucosa [1]; [10]) is reported as 5.45 ± 0.30 μEq/h · cm^2, the Acid secretion (bullfrog gastric mucosa [1]; [11]) is reported as 2.03 ± 0.21 μEq/h · cm^2 and the Acid secretion (bullfrog gastric mucosa [1]; [12]) is reported as 0.30 ± 0.10 μEq/h · cm^2. The “Rate of decline in acid secretion” value (bullfrog gastric mucosa [1]; 0.3 mM omeprazole) was −0.09034 (μEq/h · cm^2)/min.
CN [methylamine] was tested, and the “acid secretion after methylamine washed from the nutrient solution” value (bullfrog gastric mucosa [1]) was 3.74±0.41 μEq/hr cm^2, the “acid secretion after washout, % of the starting level” value (bullfrog gastric mucosa [1]) was 60% and the “acid secretion with methylamine” value (bullfrog gastric mucosa [1]) was 0.081±0.056 μEq/hr cm^2. The “effect on stimulated acid secretion (in words)” value (bullfrog gastric mucosa [1]) was “rapidly inhibits acid secretion”, the “least (minimum) concentration required for complete inhibition of acid secretion within 30 min” value (bullfrog gastric mucosa [1]) was 50 mM and the “flux rate of methylamine in inhibited tissues” value (bullfrog gastric mucosa [3]) was 0.601±0.114 μM/h cm^2. The “flux rate of methylamine in stimulated tissues” value (bullfrog gastric mucosa [3]) was 2.25±0.088 μM/h cm^2.
[Cl-].[K+] [KCl, Potassium chloride] was tested, and the “effect on stimulated acid secretion (in words)” value (bullfrog gastric mucosa [1]) was “little effect on acid secretion”.
